The source made the active and inactive calls.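 Rule for the calls: active = mean half-maximal activating concentration from the dose-response fit at or below a set limit; inactive = the rest.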

This assay concerns the target CHO-XBP1 luciferase reporter, IRE1-XBP1 UPR activation. Put plainly: XBP1 luciferase reporter activation – CHO-XBP1 cells, luminescence, counter-screen for apoptotic UPR arm activators, dose response (AID 489040).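 Note: reporter read after six hours of compound exposure.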
The term EC50 denotes the concentration at which the effect is half-maximal. For `CSc1nnc(NC(=O)c2nc(S(=O)(=O)Cc3cccc(C)c3)ncc2Cl)s1`, the EC50 is > 80 µM (inactive).

For `O=CC1=C(c2ccccc2)Oc2ccccc2O1`, the EC50 is > 80 µM (inactive).

`Oc1ccc(/C=N/Nc2nc(N3CCCC3)nc(N3CCCC3)n2)cc1O`: the EC50 was 18 µM.

For the compound `CCOC(=O)c1ccc(N=C2C(=S)N(c3ccc(C(=O)OCC)cc3)C(=N)N2/N=C/c2ccccc2)cc1`, the EC50 is > 80 µM (inactive). The same measure for `O=C(CCN1C(=O)/C(=C\c2ccccc2F)SC1=S)N1CCCCC1`: > 80 µM (inactive); for `C=CCNC(=S)N/N=C(\C)c1ccccn1`: > 80 µM (inactive); for `COc1ccc2cc(C)c3nnc(SCC(=O)Nc4nc(-c5ccc(F)cc5)cs4)n3c2c1`: “inactive”.

Regarding `S=c1[nH]nc(-c2cc(-c3ccccc3)n[nH]2)n1/N=C/C(Br)=C/c1ccccc1`, the EC50 was > 80 µM (inactive).

Regarding `Cc1ccccc1CS(=O)(=O)c1ncc(Cl)c(C(=O)Nc2ccc(F)cc2)n1`, the EC50 was > 80 µM (inactive). On to `CCc1cc(C(=O)c2ccc(C)cc2)c(NC(=O)CCl)s1`, for which the EC50 is > 80 µM (inactive). Take `Cc1ccc(Cc2cnc(NC(=O)/C(C#N)=C/c3ccc(-c4ccc([N+](=O)[O-])cc4)o3)s2)cc1`: the EC50 result was “inactive”. As for `O=C(/C=C/c1cccnc1)c1ccc(NC(=O)c2cccc(Br)c2)cc1`, the EC50 was > 80 µM (inactive). For the compound `COc1cc(NC(=O)c2cncc(-c3ccc(C#N)cc3)c2)cc(C(=O)Nc2cccc(C(F)(F)F)c2)c1`, the 50% effective concentration (EC50) was 19.3 µM. The result for `Cc1cccc(C)c1NC(=O)c1nc(S(=O)(=O)Cc2ccccc2)ncc1Cl` reads > 80 µM (inactive). The result for `O=C(CSc1ccccn1)Nc1nonc1[N+](=O)[O-]` reads > 80 µM (inactive); that for `Cc1cc(C(=O)CCl)c(C)n1CC1COc2ccccc2O1` (stereo unspecified), > 80 µM (inactive).

In the case of `Cc1ccc(C)c2sc(N3CCN(C(=O)c4ccc([N+](=O)[O-])o4)CC3)nc12`, the EC50 is > 80 µM (inactive). The same measure for `Cc1nn(Cc2c(Cl)cccc2Cl)c(C)c1NC(=O)c1cn(-c2ccccc2)nc1-c1ccccc1`: > 80 µM (inactive); for `CCOC(=O)c1c(-c2ccc(-c3ccccc3)cc2)csc1NC(=O)CNCCN(C)C`: > 80 µM (inactive). The result for `O=C(NCCc1ccccc1)c1coc(=O)c(Br)c1` reads > 80 µM (inactive); that for `COC(=O)c1cc(=O)n(Cc2ccco2)c(=Nc2ccc(F)c(Cl)c2)s1`, > 80 µM (inactive); that for `CCOC(=O)c1c(NC(C)=O)sc2c1CCC(C=O)=C2Sc1ccccc1`, > 80 µM (inactive). The same measure for `Cc1ccc(NC(=O)c2ccc([N+](=O)[O-])o2)cc1S(=O)(=O)N1CCOCC1`: > 80 µM (inactive); for `COc1ccc(-c2ccc(-c3nc4c(c(=O)[nH]c(=O)n4Cc4ccccc4)n3C)o2)c([N+](=O)[O-])c1`: > 80 µM (inactive); for `COc1ccc(C(=O)Sc2ccc(Cl)cc2)cc1OC`: > 80 µM (inactive). For `O=C(/C=C1\NC2(CCCC2)Cc2ccccc21)C(=O)N/N=C/c1ccc(O)c(O)c1`, the EC50 is 13.6 µM. The same measure for `CCc1nnc(NC(=O)c2nc(S(=O)(=O)Cc3ccc(C)cc3)ncc2Cl)s1`: > 80 µM (inactive).

Consider `O=C(Nc1ccc(S(=O)(=O)N2CCCC2)cc1)c1ccc([N+](=O)[O-])o1`, for which the EC50 is > 80 µM (inactive). `O=C(N/N=C/c1ccccn1)c1cc([N+](=O)[O-])cc([N+](=O)[O-])c1`: the EC50 is > 80 µM (inactive).

Consider `CCn1c(O)c(C2=c3ccccc3=NC2=O)c2cc(Br)ccc21`, for which the EC50 is > 80 µM (inactive). As for `CCOc1cccc(C(=O)Nc2cccc(-c3nnc(-c4ccc(C)cc4)o3)c2)c1`, the EC50 was > 80 µM (inactive). The result for `CCOC(=O)C1CCN(Cc2ccc(O)c3ncccc23)CC1` reads > 80 µM (inactive). The result for `C[C@@H]1CN([C@H](C)CO)C(=O)c2cc(NC(=O)Nc3ccc(C(F)(F)F)cc3)ccc2O[C@H]1CN(C)Cc1ccc(Cl)c(Cl)c1` reads > 80 µM (inactive). Consider `COC(=O)c1cc(=O)n(Cc2ccc3c(c2)OCO3)c(=Nc2ccc(F)c(Cl)c2)s1`, for which the EC50 was > 80 µM (inactive). Take `CCOc1ccc(-n2c(C)cc(C(=O)CCl)c2C)cc1`: the EC50 is 5.83 µM. The same measure for `CC1CCC/C=C/C(=O)c2c(O)cc(O)cc2CC(=O)O1` (stereo unspecified): > 80 µM (inactive); for `C/C(=N\NC(=O)c1ccc(Cl)cc1)c1ccccn1`: > 80 µM (inactive); for `COc1ccc(-n2nc(C#N)c(Cl)cc2=O)cc1`: > 80 µM (inactive). The same measure for `O=C(/C=C/Sc1ccccc1)c1ccccc1`: > 80 µM (inactive); for `CCOC(=O)CSc1cccc2cccnc12`: > 80 µM (inactive); for `Cc1cccc(Nc2nc(-c3ccccn3)cs2)n1`: > 80 µM (inactive). For the compound `Oc1cc(-c2cccnc2)cc2cccnc12`, the EC50 result was “inactive”.

Consider `CC1=CC(=O)C(C(C)C)=C/C1=N/OC(=O)c1cccc([N+](=O)[O-])c1`, for which the EC50 is > 80 µM (inactive). The result for `CN(C)CC(C(=O)c1ccccc1)c1ccccc1` (stereo unspecified) reads > 80 µM (inactive). The result for `O=C1NC(=O)C(=Cc2ccc(-c3ccc(Cl)cc3)o2)C(=O)N1` reads > 80 µM (inactive); that for `Cc1ccc(C)c(C(=O)Cn2ncc(Cl)c(Cl)c2=O)c1`, > 80 µM (inactive); that for `O=C(c1ccc(Br)cc1)C(CN1CCOCC1)c1ccccc1` (stereo unspecified), > 80 µM (inactive). In the case of `COc1ccc(C2OC34CCCCC3C(C#N)(C#N)C2(C#N)C(=N)O4)cc1` (stereo unspecified), the EC50 was > 80 µM (inactive).

Regarding `Cc1noc2ncnc(Sc3ccc(Cl)cc3)c12`, the EC50 is > 80 µM (inactive).

Turning to `COc1ccccc1-c1nnc(Nc2nc3c(OC)cccc3s2)o1`, the EC50 is > 80 µM (inactive). The same measure for `O=C(N/N=C/c1ccccn1)c1sc2ccccc2c1Cl`: > 80 µM (inactive); for `COc1cccc2sc(Nc3nnc(-c4cccs4)o3)nc12`: > 80 µM (inactive). For the compound `Oc1c(CN2CCc3ccccc3C2)cc(Cl)c2cccnc12`, the EC50 was > 80 µM (inactive). As for `COCc1cc(C)nc(OCC(=O)N/N=C/c2ccc(-c3cc([N+](=O)[O-])ccc3Cl)o2)c1C#N`, the EC50 is 13.2 µM.

Turning to `O=c1cc(C(Cl)(Cl)Cl)oc2c1ccc1ccccc12`, the EC50 result is “inactive”. The result for `CNC[C@@H](Cc1ccccc1)NC[C@@H](CC1CCCCC1)NCCCc1ccccc1` reads > 80 µM (inactive); that for `COc1ccccc1NC(=O)c1cnc(SCC(=O)NCC2CCCO2)n(C)c1=O` (stereo unspecified), > 80 µM (inactive). The result for `O=C1C(CSCc2ccccc2)NC(=S)N1c1ccccc1` (stereo unspecified) reads > 80 µM (inactive). The result for `O=C1C=CC(=O)N1c1ccc(N2CCCCC2)cc1` reads > 80 µM (inactive); that for `CCCCn1c(/C=N/Nc2nc3ccccc3[nH]2)nc2ccccc21`, > 80 µM (inactive); that for `COc1cc([C@H]2c3[nH]c4ccccc4c3C[C@H]3C(=O)N4[C@@H](c5cc(OC)c(OC)c(OC)c5)c5[nH]c6ccccc6c5C[C@H]4C(=O)N23)cc(OC)c1OC`, 14.1 µM. In the case of `COc1ccc(N=C2S/C(=C\c3ccc(N4CCOCC4)o3)C(=O)N2CCc2c[nH]c3ccccc23)cc1`, the EC50 is > 80 µM (inactive). The result for `C/C(=C\c1ccc(N(C)C)cc1)[N+](=O)[O-]` reads > 80 µM (inactive).

Take `Cc1c(C#N)c(NC(=O)CCl)n(Cc2cccs2)c1C`: the EC50 is > 80 µM (inactive). As to `CCCN1C/C(=C/c2ccc3c(c2)OCO3)C(=O)/C(=C/c2ccc3c(c2)OCO3)C1`, the EC50 was > 80 µM (inactive).

Turning to `Oc1ccc(/C=N/Nc2ncnc3c2ncn3Cc2ccccc2)cc1O`, the EC50 entry is “inactive”. With `COc1ccc(CCN2CCC(Nc3nc4ccccc4n3Cc3ccc(F)cc3)CC2)cc1`, the EC50 was > 80 µM (inactive). The same measure for `COc1c(Cl)cc(Cl)cc1/C=C/C(=O)c1ccc(NC(=O)c2cccs2)cc1`: > 80 µM (inactive); for `CCN(CC)c1ccc(C=C2C(=O)NC(=S)NC2=O)cc1`: > 80 µM (inactive); for `CSc1nnc(NC(=O)c2nc(S(=O)(=O)Cc3ccccc3)ncc2Cl)s1`: > 80 µM (inactive). Take `CSC(=S)N/N=C(\C)c1ccccc1`: the EC50 is > 80 µM (inactive). In the case of `CCc1nc(N=Nc2c(O)[nH]c3ccccc23)c2c3c(sc2n1)CCC3`, the EC50 entry is “inactive”. The same measure for `Clc1ccc(-n2nnnc2Sc2ncnc3sccc23)cc1`: > 80 µM (inactive); for `O=C(/C(=C/c1ccc(Cl)cc1)c1nc2ccccc2[nH]1)c1ccccc1`: > 80 µM (inactive); for `CSc1nnc(NC(=O)c2nc(S(=O)(=O)Cc3ccc(C)cc3)ncc2Cl)s1`: > 80 µM (inactive). The result for `Cc1ccc(C[n+]2c(-c3ccc(C)cc3)cc(-c3ccc(C)cc3)cc2-c2ccc(C)cc2)cc1` reads > 80 µM (inactive); that for `O=C(O)CC1CCC(=C(Cl)Cl)C1` (stereo unspecified), > 80 µM (inactive). The result for `CS(=O)(=O)Oc1ccc2c(c1)O/C(=C\C=C\c1ccccc1)C2=O` reads > 80 µM (inactive).

On to `CCOC(=O)C(=CNc1nc(-c2ccccc2)c(C(=O)Nc2ccc(-c3ccccc3)cc2)s1)C(=O)OCC`, for which the EC50 result was “inactive”. For `CCOC(=O)C1=C(CCl)NC(=O)NC1c1ccc2c(c1)OCO2` (stereo unspecified), the EC50 was > 80 µM (inactive).

Turning to `CC(C)c1ccc(/C=C(\c2nc3ccccc3[nH]2)S(=O)(=O)c2ccccc2)cc1`, the EC50 was > 80 µM (inactive). As to `COc1ccc(/C=C/C(=O)c2ccc([N+](=O)[O-])o2)cc1`, the EC50 was > 80 µM (inactive). The same measure for `COc1ccccc1N1C(=O)C=C(Sc2nc(C)cc(C)n2)C1=O`: > 80 µM (inactive). The same measure for `S=C1SCN(CC2CC2)CN1CC1CC1`: > 80 µM (inactive). Turning to `C/C(=N\NC(=O)c1ccc(Cl)c(Cl)c1)c1ccccn1`, the EC50 is > 80 µM (inactive). Turning to `Cc1cccc(-n2c(/C=C/c3ccc([N+](=O)[O-])o3)nc3ccccc3c2=O)c1`, the EC50 is > 80 µM (inactive).
